Data from patent publication US20040224958A1, “Pyridopyrimidinone derivatives for treatment of neurodegenerative disease” (priority 2000, published 2004).
pIC50: −log10 of the molar value.

Key:
[1] = molecular target: cdk4/D (Homo sapiens, UniProt P11802); assay: Cyclin-Dependent Kinase 4 (cdk4) Assay; type: biochemical; conditions: read-out: cdk4/D IC50
[2] = molecular target: Cdk5/p25 (Homo sapiens, UniProt Q00535); assay: Cyclin-Dependent Kinase 5 High Throughput Screening (cdk5-HTS) Assay; type: biochemical; conditions: high throughput screen
Outline: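 Cdk5/p25 (1.0 μg/mL) phosphorylates GST-RbCOOH (20 μg/mL) in 50 mM Tris pH 7.4 with 10 mM MgCl2 and 20 μM ATP spiked with [γ33P]ATP, 30 min at room temperature. After EDTA stop, substrate captured on glutathione-coated plates; 33P incorporation counted by scintillation; IC50 determined.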

[3] = molecular target: cdk2/cyclinE (Homo sapiens, UniProt P24941); assay: Cyclin-Dependent Kinase Assay cdk2/cyclinE; conditions: cdk2/E IC50
[4] = molecular target: cdk2/cyclinA (Homo sapiens, UniProt P24941); assay: Cyclin-Dependent Kinase Assay cdk2/cyclinA; conditions: cdk2/A IC50
[5] = molecular target: cdc2/cyclinB (Homo sapiens, UniProt P06493); assay: Cyclin-Dependent Kinase Assay cdc2/cyclinB
Sequence of cdc2/cyclinB (P06493 whole entry): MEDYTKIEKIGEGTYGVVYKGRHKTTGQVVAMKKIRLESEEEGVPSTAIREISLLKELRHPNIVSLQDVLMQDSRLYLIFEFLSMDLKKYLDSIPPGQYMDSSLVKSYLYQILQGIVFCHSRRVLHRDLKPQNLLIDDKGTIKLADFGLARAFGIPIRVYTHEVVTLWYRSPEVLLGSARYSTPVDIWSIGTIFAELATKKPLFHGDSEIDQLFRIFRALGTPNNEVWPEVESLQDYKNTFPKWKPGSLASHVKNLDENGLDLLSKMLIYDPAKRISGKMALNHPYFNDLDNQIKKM
Sequence of cdc2/cyclinB (P14635 whole entry, further chain): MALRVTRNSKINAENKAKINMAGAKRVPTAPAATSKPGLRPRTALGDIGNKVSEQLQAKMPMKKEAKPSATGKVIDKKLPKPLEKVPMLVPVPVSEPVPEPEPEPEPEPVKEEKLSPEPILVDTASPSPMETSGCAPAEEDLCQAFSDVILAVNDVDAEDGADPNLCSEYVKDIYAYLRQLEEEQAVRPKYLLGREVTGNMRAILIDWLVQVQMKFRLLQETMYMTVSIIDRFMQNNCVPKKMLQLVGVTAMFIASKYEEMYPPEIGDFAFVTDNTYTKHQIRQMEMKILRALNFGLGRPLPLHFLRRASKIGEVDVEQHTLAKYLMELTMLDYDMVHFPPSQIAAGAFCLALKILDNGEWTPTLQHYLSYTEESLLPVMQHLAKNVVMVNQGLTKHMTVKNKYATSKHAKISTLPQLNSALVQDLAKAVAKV

Sequence of cdk4/D (P11802 whole entry): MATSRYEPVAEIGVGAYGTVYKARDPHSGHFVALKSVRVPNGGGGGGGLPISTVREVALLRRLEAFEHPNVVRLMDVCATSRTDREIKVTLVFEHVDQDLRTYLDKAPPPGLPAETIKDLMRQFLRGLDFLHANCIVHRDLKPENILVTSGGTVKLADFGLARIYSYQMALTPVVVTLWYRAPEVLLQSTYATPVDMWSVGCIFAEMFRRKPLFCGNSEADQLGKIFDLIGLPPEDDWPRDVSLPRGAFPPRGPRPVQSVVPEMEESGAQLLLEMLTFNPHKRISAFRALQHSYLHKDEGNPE
Sequence of cdk4/D (P24385 whole entry, further chain): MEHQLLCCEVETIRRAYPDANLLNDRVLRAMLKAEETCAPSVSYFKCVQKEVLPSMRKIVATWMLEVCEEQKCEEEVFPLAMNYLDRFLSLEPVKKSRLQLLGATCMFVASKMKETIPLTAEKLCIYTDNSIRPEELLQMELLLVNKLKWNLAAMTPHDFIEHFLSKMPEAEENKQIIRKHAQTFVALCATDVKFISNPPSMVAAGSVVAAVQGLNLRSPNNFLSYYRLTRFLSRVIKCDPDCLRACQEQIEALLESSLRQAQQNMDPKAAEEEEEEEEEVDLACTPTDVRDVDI

Compound	pIC50 [1]	pIC50 [2]	pIC50 [3]	pIC50 [4]	pIC50 [5]
CCCCn1c(=O)ccc2cnc(Nc3ccc(Br)c(C(F)(F)F)c3)nc21 [Example 374, 2-(4-Bromo-3-trifluoromethyl-phenylamino)-8-butyl-8H-pyrido[2,3-d]pyrimidin-7-one]	5.53	6.42	6.18	5.54	6.02
CCCCn1c(=O)ccc2cnc(Nc3cccc(I)c3)nc21 [Example 375, 8-Butyl-2-(3-iodo-phenylamino)-8H-pyrido[2,3-d]pyrimidin-7-one]	6.14	7.07	7.31	6.39	6.97
CCCn1c(=O)ccc2cnc(Nc3ccc(C)c(F)c3)nc21 [Example 376, 2-(3-Fluoro-4-methyl-phenylamino)-8-propyl-8H-pyrido[2,3-d]pyrimidin-7-one]	6.42	6.88	6.40	5.93	6.56
CCCCn1c(=O)ccc2cnc(Nc3ccc(C)c(C)c3)nc21 [Example 377, 8-Butyl-2-(3,4-dimethyl-phenylamino)-8H-pyrido[2,3-d]pyrimidin-7-one]	6.29	6.70	6.64	5.96	6.50
CCCCn1c(=O)ccc2cnc(Nc3ccc4[nH]ccc4c3)nc21 [Example 378, 8-Butyl-2-(1H-indol-5-ylamino)-8H-pyrido[2,3-d]pyrimidin-7-one]	7.01	7.02	7.07	6.47	6.82
CCCCn1c(=O)ccc2cnc(Nc3ccc4[nH]ncc4c3)nc21 [Example 379, 8-Butyl-2-(1H-indazol-5-ylamino)-8H-pyrido[2,3-d]pyrimidin-7-one]	6.85	7.33	7.56	7.08	7.37
CCCCn1c(=O)ccc2cnc(Nc3ccc4[nH]nnc4c3)nc21 [Example 380, 2-(1H-Benzotriazol-5-ylamino)-8-butyl-8H-pyrido[2,3-d]pyrimidin-7-one]	6.55	7.49	7.59	7.08	7.23
CCCCn1c(=O)ccc2cnc(Nc3ccc(NC(=O)OC(C)(C)C)cc3)nc21 [Example 381, [4-(8-Butyl-7-oxo-7,8-dihydro-pyrido[2,3-d]pyrimidin-2-ylamino)-phenyl]-carbamic acid tert-butyl ester]	6.40	6.69	6.88	6.29	6.82
CCCCn1c(=O)ccc2cnc(Nc3ccc(O)cc3F)nc21 [Example 382, 8-Butyl-2-(2-fluoro-4-hydroxy-phenylamino)-8H-pyrido[2,3-d]pyrimidin-7-one]	6.17	6.23	6.49	5.81	5.89
CCCCn1c(=O)ccc2cnc(Nc3ccc(O)c(Cl)c3)nc21 [Example 383, 8-Butyl-2-(3-chloro-4-hydroxy-phenylamino)-8H-pyrido[2,3-d]pyrimidin-7-one]	6.80	7.33	7.60	7.02	7.34
CCCCn1c(=O)ccc2cnc(Nc3cc(Cl)c(O)c(Cl)c3)nc21 [Example 384, 8-Butyl-2-(3,5-dichloro-4-hydroxy-phenylamino)-8H-pyrido[2,3-d]pyrimidin-7-one]	5.95	7.04	7.59	7.01	6.94
CCCCn1c(=O)ccc2cnc(Nc3ccc(OC)cc3)nc21 [Example 385, 8-Butyl-2-(4-methoxy-phenylamino)-8H-pyrido[2,3-d]pyrimidin-7-one]	5.94	6.89	6.82	6.49	6.81
CCCCn1c(=O)ccc2cnc(Nc3ccc(OC)c(OC)c3)nc21 [Example 386, 8-Butyl-2-(3,4-dimethoxy-phenylamino)-8H-pyrido[2,3-d]pyrimidin-7-one]	6.21	7.63	7.04	6.70	7.08
CCCCn1c(=O)ccc2cnc(Nc3ccc(F)cc3)nc21 [Example 387, 8-Butyl-2-(4-fluoro-phenylamino)-8H-pyrido[2,3-d]pyrimidin-7-one]	6.55	6.97	7.10	6.80	6.89
CCCCn1c(=O)ccc2cnc(Nc3ccc(Cl)c(C)c3)nc21 [Example 388, 8-Butyl-2-(4-chloro-3-methyl-phenylamino)-8H-pyrido[2,3-d]pyrimidin-7-one]	6.51	6.96	7.00	6.16	6.70
CCCCn1c(=O)ccc2cnc(Nc3ccc(F)c(C(F)(F)F)c3)nc21 [Example 390, 8-Butyl-2-(4-fluoro-3-trifluoromethyl-phenylamino)-8H-pyrido[2,3-d]pyrimidin-7-one]	5.96	7.08	7.07	6.33	6.66
CCCCn1c(=O)ccc2cnc(Nc3ccc(F)c(C)c3)nc21 [Example 392, 8-Butyl-2-(4-fluoro-3-methyl-phenylamino)-8H-pyrido[2,3-d]pyrimidin-7-one]	6.12	6.96	7.11	6.44	6.85
CCCCn1c(=O)ccc2cnc(Nc3ccc(S(N)(=O)=O)cc3)nc21 [Example 393, 4-(8-Butyl-7-oxo-7,8-dihydro-pyrido[2,3-d]pyrimidin-2-ylamino)-benzenesulfonamide]	6.74	8.01	7.96	7.47	7.35
CCCCn1c(=O)ccc2cnc(Nc3ccc(OC)c(F)c3)nc21 [Example 394, 8-Butyl-2-(3-fluoro-4-methoxy-phenylamino)-8H-pyrido[2,3-d]pyrimidin-7-one]	6.92	6.82	6.92	6.47	6.44
CCCCn1c(=O)ccc2cnc(Nc3ccc(C#N)c(NC(C)=O)c3)nc21 [Example 395, N-[5-(8-Butyl-7-oxo-7,8-dihydro-pyrido[2,3-d]pyrimidin-2-ylamino)-2-cyano-phenyl]-acetamide]	7.05	7.04	7.07	6.47	6.66
CCCCn1c(=O)ccc2cnc(Nc3cc(OC)cc(C(F)(F)F)c3)nc21 [Example 396, 8-Butyl-2-(3-methoxy-5-trifluoromethyl-phenylamino)-8H-pyrido[2,3-d]pyrimidin-7-one]	5.96	6.23	6.52	5.59	6.22
CCCCn1c(=O)ccc2cnc(Nc3ccc(F)c(F)c3)nc21 [Example 397, 8-Butyl-2-(3,4-difluoro-phenylamino)-8H-pyrido[2,3-d]pyrimidin-7-one]	6.60	7.09	7.12	6.51	6.54
CCCCn1c(=O)ccc2cnc(Nc3ccc(I)c(Cl)c3)nc21 [Example 398, 8-Butyl-2-(3-chloro-4-iodo-phenylamino)-8H-pyrido[2,3-d]pyrimidin-7-one]	6.64	7.06	6.46	5.85	6.38
CCCCn1c(=O)ccc2cnc(Nc3cc(C)cc(C)c3)nc21 [Example 399, 8-Butyl-2-(3,5-dimethyl-phenylamino)-8H-pyrido[2,3-d]pyrimidin-7-one]	6.04	7.85	7.30	6.51	7.20
CCCCn1c(=O)ccc2cnc(Nc3ccc(C)c(Cl)c3)nc21 [Example 400, 8-Butyl-2-(3-chloro-4-methyl-phenylamino)-8H-pyrido[2,3-d]pyrimidin-7-one]	6.77	7.42	7.25	6.32	6.92
CCCCn1c(=O)ccc2cnc(Nc3ccc(Cl)c(C(F)(F)F)c3)nc21 [Example 401, 8-Butyl-2-(4-chloro-3-trifluoromethyl-phenylamino)-8H-pyrido[2,3-d]pyrimidin-7-one]	5.89	6.53	6.07	6.06	5.72
CCCCn1c(=O)ccc2cnc(Nc3cccc(S(N)(=O)=O)c3)nc21 [Example 402, 3-(8-Butyl-7-oxo-7,8-dihydro-pyrido[2,3-d]pyrimidin-2-ylamino)-benzenesulfonamide]	7.06	7.70	7.60	6.85	7.24
CCCCn1c(=O)ccc2cnc(Nc3ccc4c(c3)CCCC4=O)nc21 [Example 403, 8-Butyl-2-(5-oxo-5,6,7,8-tetrahydro-naphthalen-2-ylamino)-8H-pyrido[2,3-d]pyrimidin-7-one]	7.03	7.64	7.41	6.64	7.14
CCCCn1c(=O)ccc2cnc(Nc3cc(F)cc(F)c3)nc21 [Example 404, 8-Butyl-2-(3,5-difluoro-phenylamino)-8H-pyrido[2,3-d]pyrimidin-7-one]	5.72	6.55	6.52	6.19	6.21
